According to paper PMC11374660, “The novel family of Warbicin® compounds inhibits glucose uptake both in yeast and human cells and restrains cancer cell proliferation” (Frontiers in Oncology, 2024):
Like-named read-outs stand apart in the source and are kept apart here.

Legend:
[1] = test system: hxk2Δ hxk1Δ glk1Δ yeast cells; test: Glucose uptake in hxk2Δ hxk1Δ glk1Δ yeast cells; assay type: cell-based, S. cerevisiae; settings: strain lacking glucose phosphorylation
Experimental: (§1) Zero-trans uptake of radioactively labeled [U-^14C]glucose, [U-^14C]fructose or [U-^14C]galactose by S. cerevisiae cells was determined in accordance with previous studies ([45], [75]). Cells were grown on different carbon sources depending on the experiment. For measuring glucose uptake activity in the tps1Δ and tps1Δ hxtΔ strains, cells were grown on YP medium containing 325 mM glycerol (measurement of 10 s). Typically, for compound characterization and kinetic studies in wild type and tps1Δ strains, cells were (pre)grown on Complete Synthetic medium supplemented with 110 mM galactose (measurement of 10 s). In the experiments on the influence of hexokinase activity on the sugar uptake rate, the measurement duration was shortened to 5 s and cells were always grown on YP medium containing 325 mM glycerol and 430 mM ethanol. After harvesting, cells were washed twice with ice-cold 25 mM MES-buffer pH 6, and resuspended in their respective medium without sugar to a final concentration of 45 mg (wet weight)/mL. The amount of added tracer was estimated to give a response close to at least 1000 counts per min in order to adequately counter background noise. […] The loaded filter was transferred to a scintillation vial containing 3 mL liquid scintillation cocktail (Ultima-Flo M, Perkin Elmer) and counted using the Hidex 300 SL. […]

[2] = test system: hxk2Δ hxk1Δ GLK1 yeast cells; test: Sugar uptake in hxk2Δ hxk1Δ GLK1 yeast cells; assay type: cell-based, S. cerevisiae
Experimental: (§2) Zero-trans uptake of radioactively labeled [U-^14C]glucose, [U-^14C]fructose or [U-^14C]galactose by S. cerevisiae cells was determined in accordance with previous studies ([45], [75]). Cells were grown on different carbon sources depending on the experiment. For measuring glucose uptake activity in the tps1Δ and tps1Δ hxtΔ strains, cells were grown on YP medium containing 325 mM glycerol (measurement of 10 s). Typically, for compound characterization and kinetic studies in wild type and tps1Δ strains, cells were (pre)grown on Complete Synthetic medium supplemented with 110 mM galactose (measurement of 10 s). In the experiments on the influence of hexokinase activity on the sugar uptake rate, the measurement duration was shortened to 5 s and cells were always grown on YP medium containing 325 mM glycerol and 430 mM ethanol. After harvesting, cells were washed twice with ice-cold 25 mM MES-buffer pH 6, and resuspended in their respective medium without sugar to a final concentration of 45 mg (wet weight)/mL. The amount of added tracer was estimated to give a response close to at least 1000 counts per min in order to adequately counter background noise. Cells were first preincubated for 10 min at 30°C with the compound to acclimate the cells to the temperature and to allow adequate interaction with the compound prior to uptake. Next, hexose sugar was mixed with the cell suspension, which was then incubated at 30°C for 5 or 10 s, depending on the experiment, after which the cells were rapidly filtered over a glass microfiber filter (Whatman GF/C) and washed three times with ice-cold dH2O. The loaded filter was transferred to a scintillation vial containing 3 mL liquid scintillation cocktail (Ultima-Flo M, Perkin Elmer) and counted using the Hidex 300 SL. Three blank measurements per strain were typically included to account for background signal, for which the cells were first quenched before adding the radioactive label.

[3] = test system: HXK2 hxk1Δ glk1Δ yeast cells; test: Sugar uptake in HXK2 hxk1Δ glk1Δ yeast cells; assay type: cell-based, S. cerevisiae
Experimental: as §1

[4] = biological target: T1, yeast Hxt7 (Saccharomyces cerevisiae, UniProt P39004); test: Glucose uptake by Hxt7 expressed in yeast RE700A hxt^0 gal2Δ; assay type: cell-based, S. cerevisiae; settings: 25 µM, hxt^0 gal2Δ strain
T1 construct: expressed in transfected cells; host or cells: S. cerevisiae RE700A hxt0 gal2Δ (A7) or EBY.VW4000 hxt0 erg4Δ (A9) transformed with pHXT7
Experimental: (§3) Cells of S. cerevisiae were either grown in minimal or rich medium. For minimal medium, cells were grown in Complete Synthetic medium (MP biomedicals) containing 0.5% (w/v) ammonium sulphate (Sigma-Aldrich), 0.17% (w/v) yeast nitrogen base without amino acids and without ammonium sulphate, supplemented with 100 mg/L adenine. In the case of auxotrophic selection, the appropriate composition of essential amino acids (MP Biomedicals) was chosen. For liquid medium, pH was adjusted to 5.5 and for solid medium (2% agar) to 6.5 with KOH. For rich medium, cells were grown on YP medium (1% w/v yeast extract, 2% w/v bacteriological peptone), supplemented with 100 mg/L adenine. Cells of the EBY.VW4000 hxt^0 strain expressing a single HXT carrier or GLUT isoform were (pre)grown in YP medium with 58 mM maltose (which is taken up by its own dedicated maltose transporter). S. cerevisiae cells were always grown at 30°C. Liquid cultures were shaken at 200 rpm.
(§4) Zero-trans uptake of radioactively labeled [U-^14C]glucose, [U-^14C]fructose or [U-^14C]galactose by S. cerevisiae cells was determined in accordance with previous studies ([45], [75]). Cells were grown on different carbon sources depending on the experiment. […] The loaded filter was transferred to a scintillation vial containing 3 mL liquid scintillation cocktail (Ultima-Flo M, Perkin Elmer) and counted using the Hidex 300 SL. […]

[5] = biological target: T2, human GLUT1^V69M (Homo sapiens, UniProt P11166, V69M); test: Glucose uptake by GLUT1^V69M expressed in yeast RE700A hxt^0 gal2Δ; assay type: cell-based; settings: 25 µM, hxt^0 gal2Δ strain
T2 construct: expressed in transfected cells; host or cells: S. cerevisiae RE700A hxt0 gal2Δ transformed with pFL38Kan-GLUT1^V69M (TEF1 promoter, low-copy)
T2 sequence (P11166 1-492 V69M): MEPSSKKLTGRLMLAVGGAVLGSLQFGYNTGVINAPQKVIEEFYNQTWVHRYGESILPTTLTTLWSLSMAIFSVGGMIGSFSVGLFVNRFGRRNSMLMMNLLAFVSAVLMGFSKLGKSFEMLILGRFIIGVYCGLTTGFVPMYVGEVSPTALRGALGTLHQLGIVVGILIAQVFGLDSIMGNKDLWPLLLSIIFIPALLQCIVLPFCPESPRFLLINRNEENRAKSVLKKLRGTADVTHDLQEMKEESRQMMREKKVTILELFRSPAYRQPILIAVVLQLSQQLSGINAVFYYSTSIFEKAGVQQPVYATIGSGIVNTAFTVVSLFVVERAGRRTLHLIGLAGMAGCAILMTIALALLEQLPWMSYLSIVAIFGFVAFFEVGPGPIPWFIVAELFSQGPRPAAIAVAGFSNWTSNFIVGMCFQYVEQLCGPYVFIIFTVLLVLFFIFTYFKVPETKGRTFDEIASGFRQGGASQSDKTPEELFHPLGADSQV
Experimental: as §3, §4

[6] = test system: glucose uptake by wild type yeast cells; test: Zero-trans uptake of radioactive glucose in wild type yeast cells; assay type: cell-based, S. cerevisiae; settings: for IC50: radioactive glucose, 10 s, read-out: IC50 for inhibition of 2.5 mM glucose uptake
Experimental: as §2

[7] = test system: MCF10A breast epithelial cell line transformed with H-RAS^V12; test: Growth and apoptosis of MCF10A H-RAS^V12 cells (IncuCyte); assay type: cell-based, human; settings: MCF10A H-RAS^V12, 1 mM glucose, 25 µM
Experimental: For both adherent A549 and MCF10A H-RAS^V12 cell lines, growth curves were established using the IncuCyte® ZOOM technology. By collecting phase contrast images, the IncuCyte® software provides a calculated confluency percentage from which growth curves can be deducted. The cell number/density was measured by calculating the confluency of phase objects (cells) sticking on the bottom of the well. Cells were seeded at a density of 1000 - 1500 cells/well in a Nunc-Edge™ 96-well plate (Thermo Fisher Scientific) and growth was typically measured over 3 to 5 days. For the measurement of apoptosis induction using the MCF10A H-RAS^V12 cell line, the IncuCyte® Caspase-3/7 green dye was added to the medium in the recommended concentration at the beginning of the growth curve experiment. Apoptosis was detected by taking fluorescent images by excitation at 488 nm followed by IncuCyte® software analysis. Cell growth of the KMS-12-PE multiple myeloma cell line, which grows in suspension, was measured by manual cell counting. Cells were initially seeded at a density of 10^4 cells/well and incubated for 4 days after which the cell number was counted. For all cell lines, the same medium used for pregrowth was also used for the growth curve experiment, albeit with different glucose concentrations depending on the experimental design. With compound administration, the final concentration of DMSO never exceeded 0.1%. Typically, at least four technical repeats were included per condition.

[8] = 250 µM CCCP or 50 µM WBC-A 10 min prior, 100 mM maltose with the tracer
[9] = Saccharomyces cerevisiae, read-out: inhibition of fructose transport

T1 sequence (P39004 whole entry): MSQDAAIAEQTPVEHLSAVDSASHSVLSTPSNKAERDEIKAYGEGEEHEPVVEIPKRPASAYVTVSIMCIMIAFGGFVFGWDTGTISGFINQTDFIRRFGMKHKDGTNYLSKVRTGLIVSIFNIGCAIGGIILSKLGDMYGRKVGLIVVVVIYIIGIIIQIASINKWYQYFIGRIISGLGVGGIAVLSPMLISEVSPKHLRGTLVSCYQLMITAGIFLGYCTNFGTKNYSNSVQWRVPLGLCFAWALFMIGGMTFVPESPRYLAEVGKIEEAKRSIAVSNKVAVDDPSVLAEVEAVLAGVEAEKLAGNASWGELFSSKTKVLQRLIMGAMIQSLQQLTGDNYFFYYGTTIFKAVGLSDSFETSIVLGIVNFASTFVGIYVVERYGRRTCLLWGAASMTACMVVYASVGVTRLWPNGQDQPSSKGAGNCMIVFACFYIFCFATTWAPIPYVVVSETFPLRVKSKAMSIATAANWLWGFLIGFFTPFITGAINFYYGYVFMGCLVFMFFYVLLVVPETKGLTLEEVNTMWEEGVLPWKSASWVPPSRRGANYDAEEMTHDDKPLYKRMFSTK

| Structure (SMILES) | 1 mM glucose uptake rate [1] | fructose uptake at tracer concentration [2, 8] | glucose uptake at tracer concentration [2, 8] | inhibition at 50 µM [2, 9] | inhibition at 50 µM [3, 9] | 1 mM glucose uptake rate ([3]; strain expressing Hxk2) | inhibition of 2.5 mM glucose uptake by Hxt7 [4] | inhibition of 2.5 mM glucose uptake by GLUT1^V69M [5] | type of inhibition of glucose uptake (Lineweaver-Burk) [6] | IC50 ([6]; Saccharomyces cerevisiae) | IC50 [6] | Ki ([6]; read-out: Ki (Dixon plot) for glucose uptake) | induction of apoptosis (caspase 3/7 dye) [7] | inhibition of proliferation [7] |
| --- | --- | --- | --- | --- | --- | --- | --- | --- | --- | --- | --- | --- | --- | --- |
| Cc1nc(Sc2nnc3n2CCCCC3)c2c(-c3cccs3)csc2n1 [WBC-A] | little further inhibition | little inhibition of fructose uptake | strong inhibition of glucose uptake | ~30% | > 75% | strong decrease in glucose uptake rate | inhibited glucose uptake both by Hxt7 and GLUT1^V69M | inhibited glucose uptake both by Hxt7 and GLUT1^V69M | mixed type of inhibition | 17.1 µM | 19 µM | 9.04 µM | – | – |
| Cc1nc(SCC(=O)c2ccc3c(c2)NC(=O)CO3)c2c(-c3cccs3)csc2n1 [WBC-11C] | – | – | – | – | – | – | – | – | – | – | – | – | strong induction of apoptosis | highest potency |
